The results in this text go back to patent publication US20090131483A1, “2-PYRIDINE DERIVATIVES AS INHIBITORS OF NEUTROPHILE ELASTASE” (priority 2005, published 2009).

Each structure is given as a SMILES string. pIC50: −log10 of the molar value.

The assay concerns the target T1, Human Neutrophil Elastase (HNE) (Homo sapiens, UniProt P08246).
T1 construct: Human Neutrophil Elastase (HNE) purified from serum; purchased Calbiochem 324681; host or cells: purified from serum (so in the source)
T1 sequence (P08246 30-267): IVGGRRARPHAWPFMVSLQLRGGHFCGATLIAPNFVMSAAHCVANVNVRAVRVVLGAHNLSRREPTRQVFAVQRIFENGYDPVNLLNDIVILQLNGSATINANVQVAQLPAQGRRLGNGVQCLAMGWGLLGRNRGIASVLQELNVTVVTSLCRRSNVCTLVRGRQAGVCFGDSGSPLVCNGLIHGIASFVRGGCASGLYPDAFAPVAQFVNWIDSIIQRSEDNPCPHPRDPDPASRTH
The assay can be described thus: Human Neutrophil Elastase Quenched-FRET Assay. Type of assay: biochemical. The settings on record: HNE purified from serum 1.7 nM, substrate MeOSuc-AAPV-AMC 100 μM, pH 7.5, 15 min pre-incubation, 30 min incubation at room temperature; read-out: Inhibition of Human Neutrophil Elastase IC50. The procedure: Human Neutrophil Elastase Quenched-FRET Assay
The assay uses Human Neutrophil Elastase (HNE) purified from serum (Calbiochem art. 324681; Ref. Baugh, R. J. et al., 1976, Biochemistry. 15, 836-841). H was stored in 50 mM sodium acetate (NaOAc), 200 mM sodium chloride (NaCl), pH 5.5 with added 30% glycerol at −20° C. The protease substrate used was Elastase Substrate V Fluorogenic, MeOSuc-AAPV-AMC (Calbiochem art. 324740; Ref. Castillo, M. J. et al., 1979, Anal. Biochem. 99, 53-64). The substrate was stored in dimethyl sulphoxide (DMSO) at −20° C. The assay additions were as follows: Test compounds and controls were added to black 96-well flat-bottom plates (Greiner 655076), 1 μL in 100% DMSO, followed by 30 μL HNE in assay buffer with 0.01% Triton (trade mark) X-100 detergent. The assay buffer constitution was: 100 mM Tris(hydroxymethyl)aminomethane (TRIS) (pH 7.5) and 500 mM NaCl. The enzyme and the compounds were incubated at room temperature for 15 minutes. Then 30 μl substrate in assay buffer was added. The assay was incubated for 30 minutes at room temperature. The concentrations of HNE enzyme and substrate during the incubation were 1.7 nM and 100 μM, respectively. The assay was then stopped by adding 60 μl stop solution (140 mM acetic acid, 200 mM sodium monochloroacetate, 60 mM sodium acetate, pH 4.3). Fluorescence was measured on a Wallac 1420 Victor 2 instrument at settings: Excitation 380 nm, Emission 460 nm. IC50 values were determined using Xlfit curve fitting using model 205.
Broadly, the pIC50 is the negative decadic logarithm of the IC50, by convention in mol/L. `Cc1c(-c2ccnn2C)cc(C(=O)NCc2cc(CO)no2)c(=O)n1-c1cccc(C(F)(F)F)c1` [Example 4, N-{[3-(Hydroxymethyl)isoxazol-5-yl]methyl}-6-methyl-5-(1-methyl-1H-pyrazol-5-yl)-2-oxo-1-[3-(trifluoromethyl)phenyl]1,2-dihydropyridine-3-carboxamide]: the negative-log IC50 (pIC50) is 7.51.
In the case of `CCc1cc(C(=O)NCc2cc(CO)no2)c(=O)n(-c2cccc(C(F)(F)F)c2)c1C` [Example 6, 5-Ethyl-N-{[3-(hydroxymethyl)isoxazol-5-yl]methyl}-6-methyl-2-oxo-1-[3-(trifluoromethyl)phenyl]-1,2-dihydropyridine-3-carboxamide] it was 7.35; in that of `Cc1c(C2CC2)cc(C(=O)NCc2cc(CO)no2)c(=O)n1-c1cccc(C(F)(F)F)c1` [Example 7, 5-Cyclopropyl-N-{[3-(hydroxymethyl)isoxazol-5-yl]methyl}-6-methyl-2-oxo-1-[3-(trifluoromethyl)phenyl]-1,2-dihydropyridine-3-carboxamide], 7.32.
With `Cc1c(C#CCO)cc(C(=O)NCc2ccc(S(C)(=O)=O)cc2)c(=O)n1-c1cccc(C(F)(F)F)c1` [Example 20, 5-(3-Hydroxyprop-1-yn-1-yl)-6-methyl-N-[4-(methylsulfonyl)benzyl]-2-oxo-1-[3-(trifluoromethyl)phenyl]-1,2-dihydropyridine-3-carboxamide] the figure was 7.64.
Consider `Cc1c(CS(C)(=O)=O)cc(C(=O)NCc2ccc(S(=O)(=O)C3CC3)cc2)c(=O)n1-c1cccc(C(F)(F)F)c1` [Example 23, N-[4-(Cyclopropylsulfonyl)benzyl]-6-methyl-5-[(methylsulfonyl)methyl]-2-oxo-1-[3-(trifluoromethyl)phenyl]-1,2-dihydropyridine-3-carboxamide], for which the pIC50 is 7.21.
